Biological target: T1, MEC-2 (Caenorhabditis elegans, UniProt Q27433)
T1 construct: expressed in transfected cells; host or cells: HEK 293T
T1 sequence (Q27433 1-481): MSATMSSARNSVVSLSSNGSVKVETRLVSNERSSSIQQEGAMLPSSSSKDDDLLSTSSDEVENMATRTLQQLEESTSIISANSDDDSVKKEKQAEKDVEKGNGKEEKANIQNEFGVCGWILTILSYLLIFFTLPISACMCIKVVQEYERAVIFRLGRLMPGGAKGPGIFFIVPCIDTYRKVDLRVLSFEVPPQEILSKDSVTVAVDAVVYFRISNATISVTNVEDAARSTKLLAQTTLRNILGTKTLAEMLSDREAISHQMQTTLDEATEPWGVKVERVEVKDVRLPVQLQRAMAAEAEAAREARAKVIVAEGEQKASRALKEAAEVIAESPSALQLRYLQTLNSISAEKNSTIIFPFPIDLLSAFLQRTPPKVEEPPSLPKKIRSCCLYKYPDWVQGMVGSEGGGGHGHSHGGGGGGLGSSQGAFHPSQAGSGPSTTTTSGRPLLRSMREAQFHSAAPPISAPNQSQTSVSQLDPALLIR
Experiment: Photoaffinity labeling with photoactivatable lipids in HEK 293T cells
Assay type: binding, C. elegans
Conditions: MEC-2 expressed in HEK 293T cells, 16 hours, UV irradiation, autoradiography
Description: Photoaffinity labeling. Experiments were performed as described infra. For labeling with [3H]photocholesterol or [3H]photophosphatidylcholine, cells were supplemented with delipidized FCS and [3H]photocholesterol-MBCD complex or 10-azi-stearate and [3H]choline were added. After 16 hours, cells were washed three times with Ca/Mg-PBS (PBS containing 0.1 mM CaCl2 and 1 mM MgCl2) and irradiated for 30 minutes in Ca/Mg-PBS with a 100 W mercury lamp. For further analysis, cells were lysed on ice for 1 h in lysis buffer (50 mM Tris-HCl pH 7.4, 140 mM NaCl, 5 mM EDTA, 0.5 mM phenylmethylsulfonyl fluoride (PMSF), 1% Triton® X-100, 0.5% deoxycholate). The lysate was centrifuged for eight minutes at 10,000×g, and the supernatant was subjected to immunoprecipitation using an anti-FLAG monoclonal antibody. Aliquots of the starting extract, the supernatants after immunoprecipitation and the immunoprecipitates were separated by SDS-PAGE (12%) followed by blotting of the proteins on PVDF membrane. Radioactivity was detected by phosphoimaging (Fujifilm BAS-2500, Fuji Photo Film Co., Ltd, Japan) using a Tritium-sensitive BAS-TR2025 imaging plate (Fuji Photo Film Co., Ltd, Japan). From the same membrane, an immunoblot was performed using anti-FLAG antibodies.
Cell Culture Studies. Most cell studies used HEK 293T cells that were grown in DMEM as described [Huber et al. (2001) J. Biol. Chem. 18:18]. […]

## CC(C)CCC[C@@H](C)[C@H]1CC[C@H]2[C@@H]3CC=C4C[C@@H](O)CC[C@]4(C)[C@H]3CC[C@]12C [cholesterol]
  binding of photoactivatable lipid to MEC-2: bound
